# Assay results published in US8969331B2, “Treatment of skin and mucosal superficial wounds using adrenergic receptor agonists” (priority 2008, dated 2015).
# Tested on: small cuts and/or abrasions
# Test: topical application of epinephrine compositions to small cuts and/or abrasions
# Format: in vivo
# Conditions: compositions containing from about 0.001 mg/ml to about 2.5 mg/ml, applied topically
# [1] = compared with wounds untreated or treated with conventional methods
compound,measurement,setting,value
CNC[C@H](O)c1ccc(O)c(O)c1 [epinephrine],scab formation on treated skin areas,assessed visually,no scabs were formed visually
same,control of bleeding,[1],faster control of bleeding
same,healing of small cuts and/or abrasions,[1],promoted healing of small cuts and/or abrasions
